Experimental data: PubChem BioAssay AID2060510 (Molecular Pharmacology Branch, DTP, NCI, 2025)

System: 439559-082-T-J2-PDC spheroids viability
Test: Anticancer human tumor 439559-082-T-J2-PDC patient-derived colon adenocarcinoma cell line growth inhibition [GQUAD]
Conditions: for IC50: curve of first compound; for viability, T/C: stronger effect = lower value
How it was run: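 Multi-cell-type spheroids of tumor cells with HUVEC and mesenchymal stem cells, treated with drug combinations. Concentrations descend in half-log steps from near clinical Cmax, or from 10 microM where Cmax is unknown; viability read-out.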
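Note: spheroids exposed to the agents for 7 days before readout.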
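Throughout, for viability, T/C: percent of luminescence signal in DMSO vehicle wells taken as 100% viability.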

Structure (SMILES): COc1ncnc(C2CC2)c1-c1ncc2cnn(Cc3ccc(-c4nc(C(F)(F)F)cn4C(C)C)cc3)c2n1 + Cc1cnc(CNC(=O)c2c(=O)c3ccc(N4CCCN(C)CC4)nc3n3c2sc2ccccc23)cn1
- IC50 (second compound 0.0316 µM): > 10 µM
- IC50 (second compound 0.1 µM): > 10 µM
- IC50 (second compound 0.316 µM): > 10 µM
- IC50 (second compound 1 µM): > 10 µM
- IC50 (second compound 3.16 µM): > 10 µM
- IC50 (second compound 10 µM): > 10 µM
- viability, T/C (second compound 0.0316 µM, first compound 0.0316 µM): 106%
- viability, T/C (second compound 0.0316 µM, first compound 0.1 µM): 92%
- viability, T/C (second compound 0.0316 µM, first compound 0.316 µM): 93.4%
- viability, T/C (second compound 0.0316 µM, first compound 1 µM): 105%
- viability, T/C (second compound 0.0316 µM, first compound 3.16 µM): 95.5%
- viability, T/C (second compound 0.0316 µM, first compound 10 µM): 97.5%
- viability, T/C (second compound 0.1 µM, first compound 0.0316 µM): 103%
- viability, T/C (second compound 0.1 µM, first compound 0.1 µM): 101%
- viability, T/C (second compound 0.1 µM, first compound 0.316 µM): 87.4%
- viability, T/C (second compound 0.1 µM, first compound 1 µM): 95.4%
- viability, T/C (second compound 0.1 µM, first compound 3.16 µM): 97.6%
- viability, T/C (second compound 0.1 µM, first compound 10 µM): 96.5%
- viability, T/C (second compound 0.316 µM, first compound 0.0316 µM): 86.5%
- viability, T/C (second compound 0.316 µM, first compound 0.1 µM): 85.1%
- viability, T/C (second compound 0.316 µM, first compound 0.316 µM): 89.5%
- viability, T/C (second compound 0.316 µM, first compound 1 µM): 79.3%
- viability, T/C (second compound 0.316 µM, first compound 3.16 µM): 93.5%
- viability, T/C (second compound 0.316 µM, first compound 10 µM): 77.4%
- viability, T/C (second compound 1 µM, first compound 0.0316 µM): 74.4%
- viability, T/C (second compound 1 µM, first compound 0.1 µM): 78%
- viability, T/C (second compound 1 µM, first compound 0.316 µM): 64.9%
- viability, T/C (second compound 1 µM, first compound 1 µM): 81.8%
- viability, T/C (second compound 1 µM, first compound 3.16 µM): 83.7%
- viability, T/C (second compound 1 µM, first compound 10 µM): 73%
- viability, T/C (second compound 3.16 µM, first compound 0.0316 µM): 66.4%
- viability, T/C (second compound 3.16 µM, first compound 0.1 µM): 69.3%
- viability, T/C (second compound 3.16 µM, first compound 0.316 µM): 69.2%
- viability, T/C (second compound 3.16 µM, first compound 1 µM): 69.6%
- viability, T/C (second compound 3.16 µM, first compound 3.16 µM): 70%
- viability, T/C (second compound 3.16 µM, first compound 10 µM): 69%
- viability, T/C (second compound 10 µM, first compound 0.0316 µM): 66.8%
- viability, T/C (second compound 10 µM, first compound 0.1 µM): 58%
- viability, T/C (second compound 10 µM, first compound 0.316 µM): 58.9%
- viability, T/C (second compound 10 µM, first compound 1 µM): 66.3%
- viability, T/C (second compound 10 µM, first compound 3.16 µM): 67%
- viability, T/C (second compound 10 µM, first compound 10 µM): 63.9%
